The source of these data is ChEMBL document CHEMBL1777777, “Design, synthesis of symmetrical bivalent mimetics of annonaceous acetogenins and their cytotoxicities” (Bioorg Med Chem Lett, 2011).

Calls of active or inactive are those of the source. No cut-off for these calls is given here. Bounds are passed on as bounds.

Data set [1] in a line: Cytotoxicity against human HLF cells after 74 hrs by MTT assay. The note with it: for GI50: hlf, 74 h; for GI50 at 74 h: HLF cells. It counts as cell-based. Background: Tetrazolium assays rely on reduction of a dye to a coloured formazan, in cell work by metabolically active cells.
Data set [2] in a line: Cytotoxicity against human BEAS2B cells after 74 hrs by MTT assay. It counts as cell-based, BEAS-2B. The following applies: for GI50: beas-2b, 74 h; for GI50 at 74 h: BEAS2B cells.
A further data set has as its system HT-29. The data set can be described thus: Cytotoxicity against human HT-29 cells after 74 hrs by MTT assay. It counts as functional.
In the next data set the test system is HCT-116. The experiment in a line: Cytotoxicity against human HCT116 cells after 74 hrs by MTT assay. The data set is classed as functional.
The subject of another data set is SGC-7901. The data set can be described thus: Cytotoxicity against human SGC7901 cells after 74 hrs by MTT assay. The data set is classed as functional.
In another data set the test system is MCF7. The experiment in a line: Cytotoxicity against human MCF7 cells after 74 hrs by MTT assay. It counts as functional.

Usually GI50 stands for the concentration that inhibits growth by half. On to `COc1c(C)c(CCCCCCCCCN2CCN(CCCCCCCCCc3c(C)c(OC)c(OC)c(OC)c3OC)CC2)c(OC)c(OC)c1OC`, for which the GI50 entry in data set [1] and in data set [2] was “Not Active” in each case. Further, the GI50 entry in the data set on HT-29, with HCT-116, in the data set with SGC-7901 and with MCF7 was “inactive” each time.
As to `COC1=C(OC)C(=O)C(CCCCCCCCCN2CCN(CCCCCCCCCC3=C(C)C(=O)C(OC)=C(OC)C3=O)CC2)=C(C)C1=O`, the concentration for 50% growth inhibition (GI50) at 74 h in data set [1] and in data set [2] was above 10000 nM each time. For the same compound, the 50% growth inhibitory concentration (GI50) with HT-29 (HT-29, 74 h) was above 10000 nM; in the data set with HCT-116 (HCT-116, 74 h), 500 nM; in the data set with SGC-7901 (SGC-7901, 74 h), 490 nM; in the data set on MCF7 (MCF7, 74 h), 400 nM.
Turning to `CCCCCCCCCC[C@H](O)COCCOC[C@@H](O)CCCCCCCCCCCCC1=C[C@H](C)OC1=O`, the GI50 at 74 h in data set [1] and in data set [2] was above 10000 nM throughout. Also, the GI50 in the data set on HT-29 (HT-29, 74 h) was determined as 350 nM; in the data set on HCT-116 (HCT-116, 74 h), 110 nM; in the data set on SGC-7901 (SGC-7901, 74 h), 60 nM; in the data set on MCF7 (MCF7, 74 h) it was 260 nM.
Turning to `C[C@H]1C=C(CCCCCCCC(O)CNCCCNCC(O)CCCCCCCC2=C[C@H](C)OC2=O)C(=O)O1` (mixture of isomers), the 50% growth inhibitory concentration (GI50) result in data set [1] and in data set [2] was “Not Active” throughout. For the same compound, the GI50 entry with HT-29, in the data set with HCT-116, in the data set with SGC-7901 and in the data set with MCF7 was “inactive” throughout.
Regarding `C[C@H]1C=C(CCCCCCCC(O)CN(C)CCN(C)CC(O)CCCCCCCC2=C[C@H](C)OC2=O)C(=O)O1` (mixture of isomers), the GI50 at 74 h in data set [1] and in data set [2] was above 10000 nM each time. The GI50 entry with HT-29 and in the data set with HCT-116 was “inactive” in each case. Besides, the GI50 in the data set on SGC-7901 (SGC-7901, 74 h) worked out at 6220 nM; in the data set on MCF7 (MCF7, 74 h), 3160 nM.
With `C[C@H]1C=C(CCCCCCCC(O)CN(C)CCCN(C)CC(O)CCCCCCCC2=C[C@H](C)OC2=O)C(=O)O1` (mixture of isomers), the GI50 at 74 h in data set [1] worked out at 4420 nM; in data set [2], 10600 nM. Moreover, the GI50 was 1500 nM in the data set with HT-29 (HT-29, 74 h); above 10000 nM with HCT-116 (HCT-116, 74 h); 4120 nM in the data set on SGC-7901 (SGC-7901, 74 h); 2380 nM in the data set with MCF7 (MCF7, 74 h).
For `C[C@H]1C=C(CCCCCCCC(O)CNc2ccc(NCC(O)CCCCCCCC3=C[C@H](C)OC3=O)cc2)C(=O)O1` (mixture of isomers), the concentration for 50% growth inhibition (GI50) result in data set [1] was “Not Active”; in data set [2], “Not Active”; in the data set on HT-29 (HT-29, 74 h) it was 870 nM; with HCT-116 (HCT-116, 74 h), 2490 nM; in the data set with SGC-7901 (SGC-7901, 74 h), 4400 nM; in the data set on MCF7 (MCF7, 74 h), 7370 nM.
Regarding `C[C@H]1C=C(CCCCCCCC(O)CN2CCN(CC(O)CCCCCCCC3=C[C@H](C)OC3=O)CC2)C(=O)O1` (mixture of isomers), the GI50 at 74 h in data set [1] was above 10000 nM. In addition, the concentration for 50% growth inhibition (GI50) entry is “Not Active” in data set [2]; above 10000 nM with HT-29 (HT-29, 74 h); 3720 nM with HCT-116 (HCT-116, 74 h); 1670 nM in the data set on SGC-7901 (SGC-7901, 74 h); 2190 nM in the data set with MCF7 (MCF7, 74 h).
